Experimental data: patent US6489307B1, “Antisense compositions targeted to β1-adrenoceptor-specific mRNA and methods of use” (University of Florida, priority 1998, dated 2002)
“Also recorded” adds a separate entry of the source.

Columns and labels:
Format in all cases: in vivo, rat (SHR)
[1] = tested on: isolated perfused SHR hearts; test: Isolated perfused SHR hearts (Langendorff), response to isoproterenol; conditions: 48 hr after 1 mg/kg; vs inverted ODN
Experimental: 48 hr after injection of 1 mg/kg β1-AS-ODN (n=9) or inverted ODN (n=6), SHRs were anesthetized and killed. Hearts were quickly removed and perfused via the aorta with oxygenated Krebs buffer (118 mmol/L NaCl, 18.75 mmol/L NaHCO3 1.2 mmol/L KH2PO4, 4.7 mmol/L KCl, 1.2 mmol/L MgSO4, 1.25 mmol/L CaCl2, 11.1 mmol/L glucose, and 0.01 mmol/L EDTA) at a constant flow of 7.0 mL/min. at 36° C. Coronary perfusion pressure was measured via a catheter placed proximal to the aorta and connected to a pressure transducer (Gould Staham P23ID, Eastlake, Ohio). A latex balloon filled with water and connected to the pressure transducer was inserted into the left ventricle through the left atrium to measure left ventricular end-diastolic pressure (LVEDP), left ventricular systolic pressure (LVSP), and developed left ventricular pressure (dLVP) (dLVP=LVSP−LVEDP). LVEDP during equilibration was set at 5 to 7 mm Hg. Coronary perfusion pressure, LVEDP, and LVSP were recorded continuously on a 4-channel recorder (Astro-Med, West Warwick, R.I.). […]
Forty-eight hr after injection of 1 mg/kg β1-AS-ODN (n=9) or inverted-ODN (n=6), SHR were anesthetized and sacrificed. […] Coronary perfusion pressure (CPP) was measured via a catheter placed proximal to the aorta and connected to a pressure transducer (Gould Statham P23ID). […] CPP, LVEDP and LVSP were continuously recorded on a 4-channel recorder (Astro-Med). […]

β2-ARs = test: Quantitative autoradiography of brain, heart and kidney sections
Experimental: (§1) Four days after injection of 1 mg/kg β1-AS-ODN (n=6) or saline (n=6), rats were killed, and tissues were removed and frozen in dry ice. Coronal sections of brain, horizontal sections of heart, and sagittal sections of kidney (20 μm) were cut on a cryostat (Microm, Thornwood, N.Y.) at ^−20° C. and mounted on microscope slides. Every seventh slide was stained with hematoxylin and eosin for histology. Tissue sections were preincubated in Krebs buffer (mmol/L: NaCl 118.4, KCl 4.7, MgSO4 1.2, CaCl2 1.27 and NaH2PO4 10.0, pH 7.1) containing 0.1 mmol/L GTP, 0.1 mmol/L ascorbic acid, and 10 μmol/L PMSF for 30 minutes at 25° C. Sections were then incubated in Krebs buffer containing 0.1 mmol/L ascorbic acid and 10 μmol/L PMSF with 100 pmol/L ICYP at 25° C. for 150 minutes in the presence of 1 μmol/L (^−) propranolol, 100 nmol/L ICI 118,551 ([…]), or 100 nmol/L CGP20712A (β1-selective antagonist) to distinguish nonspecific, β1−, and β2-bindings. Labeled sections were rinsed in the same buffer, followed by two 15-min. washes at 37° C. in the buffer, and rinsed in distilled water at 25° C. (Matthews et al., 1994). Dried sections were then exposed to x-ray films. The images were quantified with a computerized image analysis system (MCID, Imaging Research) and normalized with ^125I standards.
(§2) Four days after injection of 0.5 mg/kg β1-AS-ODN (n=6) or saline (n=6), rats were euthanized, and the right kidneys were removed and frozen in dry ice. Sagittal sections of kidney (20 μm) were cut on a cryostat (Microm) at −20° C. and mounted on microscope slides. Every seventh slide was stained with hematoxylin and eosin for histology. Receptor autoradiography was performed as described (Matthews et al., 1994) with 100 pmol/L ICYP at 25° C. for 150 min. in the presence of 1 μmol/L (−)-propranolol, […] ICI 118,551 (β2-selective antagonist), or 100 nmol/L CGP 20712A (β1-selective antagonist) to distinguish nonspecific, β1, and β2-bindings. The images were quantified with a computerized image analysis system (MCID, Imaging Research) and normalized with ^125I standards.
(§3) Four days after injection of 1 mg/kg β1-AS-ODN (n=6) or saline (n=6), rats were sacrificed and tissues were removed and frozen in dry ice. Coronal sections of brain, horizontal sections of heart and sagittal sections of kidney (20 μm) were cut on a cryostat (Microm) at −20° C. and mounted on microscope slides. Every seventh slide was stained with haematoxylin and eosin for histology. Tissue sections were preincubated in Krebs buffer (NaCl 118.4 mM, KCl 4.7 mM, MgSO4 1.2 mM, CaCl2 1.27 mM, NaH2PO4 10.0 mM, pH 7.1) containing 0.1 mM guanosine triphosphate (GTP), 0.1 mM ascorbic acid and 10 μM phenylmethylsulfonylfluoride (PMSF) for 30 min at 25° C. Sections were then incubated in Krebs buffer containing 0.1 mM ascorbic acid and 10 μM PMSF with 100 pM I-CYP at 25° C. for 150 min, in the presence of 1 μM (−)propranolol, 100 nM IC1118,551 (β2-selective antagonist) or 100 nM CGP20712A (β1-selective antagonist) to distinguish non-specific, β1- and β2-bindings. Labeled sections were rinsed in the same buffer, followed by two 15-min washes at 37° C. in the buffer and rinsed in distilled water at 25° C. (Matthews et al., 1994). Dried sections were then exposed to X-ray films (Kodak Biomax-MR). The images were quantitated with a computerized image analysis system (MCID, Imaging Research) and normalized using ^125I-standards.

β1-AR = test: as above
Experimental: as §1, §2, §3

[2] = 4 days after i.v. administration

Substance: 5′-CCGCGCCCATGCCGA-3′ (phosphorothioate backbone, further chemistry not given here) [β1-AS-ODN, 15-mer antisense ODN targeted to the AUG start codon of rat β1-AR mRNA]
- HR response to ISO [1]: not significantly decreased
- dLVP-ISO dose-response curve (positive inotropic effect of ISO) [1]: significantly shifted downward; also recorded: significantly shifted down
- distribution and concentration of β2-subtype in kidney (β2-ARs; 4 days after 0.5 mg/kg): remained unchanged
- β2-ARs in any tissues (β2-ARs; [2]): not affected
- overall density of β1-subtype in kidney (β1-AR; 4 days after 0.5 mg/kg, from 23.5±2.1): 15.4 ± 3.3 fmol/mg
- β1-AR density in renal cortex (β1-AR; 4 days after i.v. 1 mg/kg, from 26.4±3.1): 17.4 ± 3.3 fmol/mg
- β1-AR density in cardiac ventricles (β1-AR; 4 days after i.v. 1 mg/kg, from 30.2±2.1): 20.6 ± 2.5 fmol/mg
- distribution of β-ARs in forebrain and brain stem regions (β1-AR; [2]): no detectable changes
